The nature of this assay: Inhibitory concentration against human 2'-phosphodiesterase.

SMILES strings stand for the structures. ≈ marks a conversion by molar mass, not a printed value.

The term IC50 denotes the concentration that gives 50% inhibition. For the molecule `C[C@@H]1c2c(O)cc(O)c3c2[C@H]2[C@H](CC(=O)C4=C(O)c5c(O)cc(O)cc5[C@@H](C3=O)[C@]42Cc2cc(O)cc(=O)o2)[C@H]1O`, the IC50 is 34 µg/mL (≈ 60.7 µM).

These data come from ChEMBL document CHEMBL1141061, “Structural elucidation of A-74528, an inhibitor for 2',5'-phosphodiesterase isolated from Streptomyces sp” (Bioorg Med Chem Lett, 2005).
